Assay results as given in patent publication US11648290B2, “Cartilage-homing peptides” (FRED HUTCHINSON CANCER CENTER, priority 2015, dated 2023).

Assays:
[1] = molecular target: pepsin (Homo sapiens, UniProt P0DJD8); assay: Peptide resistance to pepsin digestion / simulated gastric fluid (RP-HPLC); assay type: in vitro ADME; conditions: 12.5 ug peptide, 20 ug pepsin, SGF pH 1.05, 30 minutes at 37.5 C
Description: SEQ ID NO: 24 peptide and SEQ ID NO: 111 peptide were suspended in 500 μl of ddH2O at a stock concentration of 2 mg/ml. Reactions were prepared with 12.5 μg peptide and 20 μg pepsin in simulated gastric fluid (pH 1.05) and incubated for 30 minutes at 37.5° C. Reactions were quenched with a final concentration of 100 mM Tris base and 10 mM dithiothreitol (DTT). Reversed phase HPLC (RP-HPLC) was run on samples using an Agilent 1260 HPLC equipped with a C-18 Poroshell 120B column. Sample were analyzed by a gradient method with a mobile phase of Solvent A (water with 0.1% TFA) and Solvent B (acetonitrile with 0.1% TFA). Solvent B was ramped up from 5%-45% of the mobile phase over a period of 10 minutes. Peptides were detected at an absorbance of 214 nm and 280 nm.

[2] = Peptide resistance to reducing agents (10 mM DTT, RP-HPLC); assay type: physicochemical; conditions: 10 mM DTT in PBS, room temperature, 30 minutes
Description: Several peptides were suspended in 500 μl of ddH2O to a stock concentration of 2 mg/ml. Reactions were prepared by adding 12.5 μg peptide from the stock solution to a 10 mM solution of DTT in PBS and allowed to incubate at room temperature for 30 minutes. RP-HPLC was run on samples using an Agilent 1260 HPLC equipped with a C-18 Poroshell 120B column. Samples were analyzed by a gradient method with a mobile phase of Solvent A (water with 0.1% TFA) and Solvent B (acetonitrile with 0.1% TFA). Solvent B was ramped up from 5%-45% of the mobile phase over a period of 10 minutes.
Peptides were fractionated by HPLC and without any further sample prep, 5 μl of the sample was injected into the mass spectrometer at 1 mg/ml using a CTCPAL® autosampler. Alternatively, if peptides were provided as a lyophilized powder, the sample was dissolved in 100% water to a concentration of 1 mg/ml a Millipore Ziptip C18® column was used to desalt the peptides prior to injection for ES-MS. The mass spectrometer was calibrated using 5 pmol of mixture of five standard peptides to achieve a high accuracy of mass determination with less than a 10 ppm error. Confirmation of peptide disulfide bond formation was achieved by analyzing the m/z isotopic distribution and the exact charge. All peptides tested are shown under reducing and non-reducing conditions.

[3] = Intravenous and oral administration of radiolabeled peptide: plasma, urine, feces; assay type: in vivo, female Harlan athymic nude mice
Description: This example describes intravenous and oral administration of peptides of this disclosure, including transit of the intact peptide through the GI tract and to the feces after oral administration. A radiolabeled peptide of SEQ ID NO: 24 was administered intravenously or orally to female Harlan athymic nude mice, 6-8 weeks of age. Radiolabeled peptides of SEQ ID NO: 24 was administered intravenously (IV) at a dose of 4.8 μCi/20 nmol. Radiolabeled peptide of SEQ ID NO: 24 was administered orally (PO) at a dose of 24 μCi/100 nmol. Mice were euthanized at various time points by CO2 asphyxiation and biological fluids were collected, including blood, urine, and feces. Urine was collected be abdominal palpitation immediately before CO2 asphyxiation. Blood was collected by cardiac puncture immediately after CO2 asphyxiation and centrifuged to separate plasma. Feces was collected either before or after CO2 asphyxiation by palpitation of the colon. Samples were analyzed by HPLC to quantify the concentration or dose of intact peptide recovered in plasma, urine, and feces. For HPLC analysis, urine samples were first diluted at a 1:20 ratio in water and plasma samples were diluted at a 1:5 ratio in water. Feces samples were dissolved in Tris buffer, centrifuged to remove the insoluble fraction, and supernatants were diluted at a 1:1 ratio in water.
The delivered dose of ^14C was 4.8 for intravenous administration and 24 μCi for oral administration. Time points examined included 0.08, 0.5, 1, 3, 8, 24, 48 hours and three mice were examined per time point. […] The delivered dose of ^14C was 4.8 for intravenous administration and 24 μCi for oral administration. Time points examined included 0.08, 0.5, 1, 3, 8, 24, 48 hours and three mice were examined per time point. […] The delivered dose of ^14C was 24 μCi for oral administration. Time points examined included 0.5, 1, and 3 hours. […] The intact peptide was eluted near 6 minutes, whereas cleaved fragments—such as the N-terminal Gly residue—were eluted near 1 minute.
(§1) The delivered dose of ^14C was 4.8 μCi for intravenous administration and 24 μCi for oral administration. Time points examined included 0.08, 0.5, 1, 3, 8, 24, 48 hours and three mice were examined per time point. […] The delivered dose of ^14C was 24 μCi for oral administration. Time points examined included 0.5, 1, 3, 8, 24, and 48 hours.
as §1, with “included 3” for “included 0.5, 1, 3, 8, 24,”, “and 8” for “and 48”

[4] = system: cartilage; conditions: 3 hours, ligated kidneys
Description: This example describes a dosing scheme for administering knottin peptides to mice in conjunction with kidney ligation. Different dosages of the peptides were administered to Female Harlan athymic nude mice, weighing 20 g-25 g, via tail vein injection (n=2 mice per knottin). The experiment was done in duplicates. The kidneys were ligated to prevent renal filtration of the peptides. Each peptide was radiolabeled by methylating lysines and the N-terminus, so the actual binding agent may contain methyl or dimethyl lysine(s) and a methylated or dimethylated amino terminus.
A target dosage of 50-100 nmol of each peptide carrying 10-25 uCi of ^14C was administered to Female Harlan athymic nude mice while anesthetized. Each peptide was allowed to freely circulate within the animal before the animals were euthanized and sectioned.
This example illustrates peptide homing to cartilage of mice with kidneys that were ligated prior to peptide administration. At the end of the dosing period in EXAMPLE 3, mice were frozen in a hexane/dry ice bath and then frozen in a block of carboxymethylcellulose. […] Thin, frozen sections of animal including imaging of tissues such as brain, tumor, liver, kidney, lung, heart, spleen, pancreas, muscle, adipose, gall bladder, upper gastrointestinal tract, lower gastrointestinal tract, bone, bone marrow, reproductive track, eye, cartilage, stomach, skin, spinal cord, bladder, salivary gland, and other types of tissues were obtained with a microtome, allowed to desiccate in a freezer, and exposed to phosphoimager plates for about ten days.
These plates were developed, and the signal (densitometry) from each organ was normalized to the signal found in the heart blood of each animal. A signal in tissue darker than the signal expected from blood in that tissue indicates peptide accumulation in a region, tissue, structure or cell. For instance, the cartilage is avascular and contains minute amounts of blood. A ratio of at least 170% signal in the cartilage versus heart ventricle was chosen as a reference level for significant targeting to cartilage, which also correlated with clear accumulation in cartilaginous tissues in the images of the slices.
The SEQ ID NO: 24 peptide was radiolabeled as in Example 3 and 100 nmol of peptide was injected into a mouse with intact kidneys. FIG. 5 illustrates the retention of and the tissue distribution in the cartilage of a peptide of SEQ ID NO: 24, 24 hours after administration.

[5] = system: cartilage (IVD, knee / synovial joints); assay: Whole body autoradiography (WBA) of radiolabeled cartilage homing peptides (Example 21); assay type: in vivo, Female Harlan athymic nude mice
Description: This example illustrates peptide homing to cartilage mice 5 minutes to 48 hours after administration of a radiolabeled peptide. Signal from the radiolabeled peptides was found in all types of cartilage at each time point examined. Each peptide was radiolabeled by methylating […] as described in EXAMPLE 2. As such, the peptide may contain methyl or dimethyl lysines and a methylated or dimethylated amino terminus. A dose of 100 nmol radiolabeled peptide was administered via tail vein injection in Female Harlan athymic nude mice, weighing 20-25 g. The experiment was done in duplicate (n=2 animals per group). In some animals, kidneys were ligated to prevent renal filtration of the radiolabeled peptides and extend plasma half-life. Each radiolabeled peptide was allowed to freely circulate within the animal for the described time period before the animals were euthanized and sectioned.
Whole body autoradiography (WBA) sagittal sectioning was performed as follows. […] Sections were allowed to desiccate in a freezer prior to imaging.
For the autoradiography imaging, tape mounted thin sections were freeze dried and radioactive samples were exposed to phophoimager plates for 7 days.

[6] = system: pepsin, trypsin; assay: HPLC after exposure to oxidative, reductive, acidic conditions and proteinases (FIG. 72); assay type: in vitro ADME; conditions: pH 1 / SGF pH 1.05, 10 mM DTT, 500 U pepsin, 50 U trypsin
Description: FIG. 72 illustrates HPLC chromatograms of peptides of SEQ ID NO: 111 and SEQ ID NO: 434 after exposure to a range of conditions including oxidative, reductive, and acidic conditions as well as after exposure to proteinases. FIG. 72A illustrates the HPLC trace of a peptide of SEQ ID NO: 111 under reducing and acidic conditions. FIG. 72B illustrates the HPLC trace of a peptide of SEQ ID NO: 111 under various combinations of reducing agents and proteases including 10 mM DTT in 500 U pepsin, 500 U pepsin, 10 mM DTT in 50 U trypsin, and 50 U trypsin. FIG. 72C illustrates the HPLC trace of a peptide of SEQ ID NO: 434 under various protease conditions including in 500 U pepsin, in 50 U trypsin, non-reducing (NR, oxidized conditions) in simulated gastric fluid (SGF) at pH 1.05, and NR.
FIG. 72 illustrates HPLC chromatograms of peptides of SEQ ID NO: 111 and SEQ ID NO: 434 after exposure to a range of conditions including oxidative, reductive, and acidic conditions as well as after exposure to proteinases. The peptide of SEQ ID NO: 434 is a linearized version of the knottin peptide of SEQ ID NO: 111. The peptide of SEQ ID NO: 434 has the same amino acid sequence as the knottin peptide of SEQ ID NO: 111, but with all cysteines mutated to serines. FIG. 72A illustrates the HPLC trace of a peptide of SEQ ID NO: 111 under reducing and acidic conditions. […]

[7] = 3 hours after 100 nmol radiolabeled peptide
[8] = 24 hours after 100 nmol radiolabeled peptide
[9] = 0.08 hours after 100 nmol radiolabeled peptide
[10] = 0.5 hours after 100 nmol radiolabeled peptide
[11] = 1 hour after 100 nmol radiolabeled peptide
[12] = 8 hours after 100 nmol radiolabeled peptide
[13] = 48 hours after 100 nmol radiolabeled peptide

Sequence of pepsin (P0DJD8 63-388): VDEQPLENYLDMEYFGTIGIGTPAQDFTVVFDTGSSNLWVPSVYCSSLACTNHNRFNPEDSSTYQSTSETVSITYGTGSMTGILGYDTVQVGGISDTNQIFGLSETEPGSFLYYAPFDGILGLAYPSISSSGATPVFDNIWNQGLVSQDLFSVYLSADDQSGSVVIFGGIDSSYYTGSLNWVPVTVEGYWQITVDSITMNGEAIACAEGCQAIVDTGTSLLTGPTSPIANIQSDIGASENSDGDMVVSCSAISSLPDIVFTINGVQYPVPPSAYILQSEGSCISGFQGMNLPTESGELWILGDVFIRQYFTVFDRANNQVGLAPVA

GSGVPINVKCRGSRDCLDPCKKAGMRFGKCINSKCHCTP [SEQ ID NO: 24]
Resistance to degradation in DTT, SGF, SGF and pepsin, SPTD solutions [1]: highly resistant to degradation | HPLC peaks under non-reducing versus reducing conditions (resistance to reduction by DTT) [2]: Peaks showing the peptide under non-reducing conditions and reducing conditions are overlapping | Detection of radioactive signal from the dosed peptide in plasma ([3]; IV 20 nmol / PO 100 nmol): at least 50 hours | Plasma concentration as percent of the dose ([3]; IV administration, 20 nmol): up to 10 % of the dose | Plasma concentration as percent of the dose ([3]; PO administration, 100 nmol): up to 1 % of the dose | Intact peptide in feces ([3]; oral dosing 100 nmol, 3 and 8 hours): detected in feces after oral dosing | Nature of radioactivity detected in plasma (HPLC / scintillation) ([3]; oral gavage 100 nmol, 0.5, 1, 3 hours): nearly some of all of the radioactivity detected in plasma was due to fragments of the administered peptide | Cartilage types reached (FIGS. 3-4) [4]: homing of SEQ ID NO: 24 to hyaline cartilage such as articular cartilage and physeal cartilage, as well as fibrocartilage | Signal in IVD as a percentage of the blood [5, 7]: 1779% | Signal in IVD as a percentage of the blood [5, 8]: 833%

GSGVPINVRCRGSRDCLDPCRRAGMRFGRCINSRCHCTP [SEQ ID NO: 111]
Resistance to degradation in DTT, SGF, SGF and pepsin, SPTD solutions [1]: similarly highly resistant in the various conditions tested | HPLC peaks under non-reducing versus reducing conditions (resistance to reduction by DTT) [2]: Peaks showing the peptide under non-reducing conditions and reducing conditions are fully overlapping | Resistance to degradation (FIG. 72) [6]: highly resistant to degradation at pH 1, reducing agents, trypsin, and pepsin | Time at which the signal to background ratio in IVD peaked ([5]; 100 nmol): 24 h | Time at which the signal to background ratio in knee joints peaked ([5]; 100 nmol): 8 h | Presence of radiolabeled peptide in IVD and synovial joints ([5]; 100 nmol, 5 minutes-48 hours): observed in the intervertebral disc (IVD) and synovial joints at all time points (5 minutes-48 hours) | Signal in IVD as a percentage of the blood [5, 9]: 164% | Signal in knee joints as a percentage of the blood [5, 9]: 404% | Signal in IVD as a percentage of the blood [5, 10]: 369% | Signal in knee joints as a percentage of the blood [5, 10]: 510% | Signal in IVD as a percentage of the blood [5, 11]: 961% | Signal in knee joints as a percentage of the blood [5, 11]: 1114% | Signal in IVD as a percentage of the blood [5, 7]: 3213% | Signal in knee joints as a percentage of the blood [5, 7]: 4059% | Signal in IVD as a percentage of the blood [5, 12]: 3777% | Signal in knee joints as a percentage of the blood [5, 12]: 4990% | Signal in IVD as a percentage of the blood [5, 8]: 5391% | Signal in knee joints as a percentage of the blood [5, 8]: 2137% | Signal in IVD as a percentage of the blood [5, 13]: 3320% | Signal in knee joints as a percentage of the blood [5, 13]: 843% | Signal of folded knotted peptide compared to linearized peptide of SEQ ID NO: 434 ([5]; IVD, 3 hours): ~20 fold

GSGVPINVRSRGSRDSLDPSRRAGMRGRSINSRSHSTP [SEQ ID NO: 434, reference compound]
Resistance to degradation (FIG. 72) [6]: more susceptible to degradation at these different conditions | Cartilage homing (qualitative, WBA) ([5]; 100 nmol radiolabeled peptide): homed to cartilage to a much lesser extent than the folded knotted peptide | Signal in IVD as a percentage of signal in blood ([5]; 3 hr Intact Kidneys, 100 nmol): 177% | Signal in IVD as a percentage of signal in blood ([5]; 3 hr Ligated Kidneys, 100 nmol): 117% | Signal in IVD as a percentage of signal in blood ([5]; 24 hr Intact Kidneys, 100 nmol): 104%
